Test results published in PMC4660442, “Identification of potential inhibitors based on compound proposal contest: Tyrosine-protein kinase Yes as a target” (Scientific Reports, 2015).

Target: T1, tyrosine-protein kinase Yes (Homo sapiens, UniProt P07947)
T1 construct: gene YES1
Experiment: reference inhibitor in ADP-Glo kinase assay, recombinant human Yes; no value given
Assay type: biochemical

T1 sequence (P07947 2-543): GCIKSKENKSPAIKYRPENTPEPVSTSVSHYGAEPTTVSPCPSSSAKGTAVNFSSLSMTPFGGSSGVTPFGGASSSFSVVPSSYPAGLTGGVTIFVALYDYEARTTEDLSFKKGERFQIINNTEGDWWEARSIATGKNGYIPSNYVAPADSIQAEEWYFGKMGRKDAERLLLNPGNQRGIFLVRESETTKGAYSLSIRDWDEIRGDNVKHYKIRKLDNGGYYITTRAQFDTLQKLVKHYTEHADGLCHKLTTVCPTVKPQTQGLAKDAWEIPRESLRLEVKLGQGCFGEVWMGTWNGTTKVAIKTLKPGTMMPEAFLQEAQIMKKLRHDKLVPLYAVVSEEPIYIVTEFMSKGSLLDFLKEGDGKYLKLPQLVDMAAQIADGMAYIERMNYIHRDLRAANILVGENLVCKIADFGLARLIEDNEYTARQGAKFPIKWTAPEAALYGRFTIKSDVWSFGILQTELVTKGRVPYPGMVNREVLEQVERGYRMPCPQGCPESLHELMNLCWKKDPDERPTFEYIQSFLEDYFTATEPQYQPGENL

CN[C@@H]1C[C@H]2O[C@@](C)([C@@H]1OC)n1c3ccccc3c3c4c(c5c6ccccc6n2c5c31)C(=O)NC4 [Staurosporine]
reference inhibitor in ADP-Glo kinase assay, recombinant human Yes; no value pri: Staurosporine, a well-known pan-kinase inhibitor typically used as a reference in kinase assays, was selected as an active inhibitor for Yes
